Holding throughout (type): cell-based
In assay [1] the test system is Human liver tumor cells HepG2. As to the kind of experiment: MTT in vitro cell proliferation inhibition experiment, HepG2. The following applies: MTT method, 48 h contact between compound and cell, read-out: Antiproliferative activity (IC50, μM) HepG2. As for the experimental part:
(§1) Human liver tumor cells HepG2, human colon cancer cells HCT116, and human gastric adenocarcinoma cells AGS were purchased from the Institute of Basic Medical Sciences, Chinese Academy of Medical Sciences. The cells each were preserved and passaged in the laboratory of the present disclosure according to respective cultivation data. Each cell line was routinely inoculated in a 50 mL cell culture flask, and cultivated with a 10% fetal bovine serum-containing DMEM/IRP-1640 medium at 37° C., 5% CO2, and 100% humidity, where the medium was changed daily. When growing to a confluency of 80% to 90%, cells were digested with a mixture of trypsin and EDTA and passaged according to 1:3.
(§2) An in vitro cell activity and proliferation inhibition experiment was conducted by an MTT method to investigate an impact of a target compound on a survival activity of each cell. Cells at a logarithmic growth phase were inoculated at 5×10^3 cells (100 μL)/well in a 96-well culture plate and cultivated for 24 h, and then compound solutions with different concentrations prepared in advance were added (100 μL) to the plate. At least 3 replicate wells were set for each concentration. A solvent control group without a compound and a blank control group without a cell were set. Edge wells each were filled with 200 μL of sterilized water. […] A liquid in each well was completely removed carefully, 150 μL of DMSO was added to each well, the plate was gently shaken on a microshaker for 10 min to make a purple crystal fully dissolved, and then an absorbance value was determined at 570 nm by a microplate reader. With a cell viability of the solvent control group without a compound as 100%, a cell survival rate was calculated as follows: a cell survival rate=(an absorbance value of a compound group−an absorbance value of the blank control group)/(an absorbance value of the control group−an absorbance value of the blank control group)×100%. A half-maximal inhibitory concentration (IC50) of a compound for a cell was calculated by the Graphpad Prism 5 software.
(In general: Tetrazolium assays rely on reduction of a dye to a coloured formazan, in cell work by metabolically active cells.)

Assay [2] relates to human colon cancer cells HCT116. The assay can be described thus: MTT in vitro cell proliferation inhibition experiment, HCT116. The following applies: 48 h contact between compound and cell, read-out: Antiproliferative activity (IC50, μM) HCT116. As for the experimental part: as §1, §2
Assay [3] concerns human gastric adenocarcinoma cells AGS. The assay can be described thus: MTT in vitro cell proliferation inhibition experiment, AGS. The conditions noted are these: MTT method, 48 h contact between compound and cell, read-out: Antiproliferative activity (IC50, μM) AGS. As for the experimental part:
as §1, §2

The mark [4] stands for this setting: Homo sapiens, HCT-116, MTT method.

Read-outs that look alike come from different tables or passages of the source.

For orientation: IC50 means the concentration at which inhibition is half-maximal.

With `Cc1ccc(C2C(c3c[nH]c4ccccc34)NC3(C(=O)c4ccccc4C3=O)C2C(=O)c2nc3ccccc3[nH]2)cc1` (stereo not drawn) [Compound 44, 3-(1H-benzimidazol-2-carbonyl)-5-(1H-indol-3-yl)-4-p-tolylspiro[inden-2,2′-pyrrolidine]-1,3-dione], the values for the IC50 in assay [1] (Homo sapiens), in assay [2] (setting [4]) and in assay [3] (Homo sapiens) were 5.67 µM, 5.34 µM and 6.02 µM, respectively.
On the same counts, the results for `CCOc1ccc(C2C(c3c[nH]c4ccccc34)NC3(C(=O)c4ccccc4C3=O)C2C(=O)c2nc3ccccc3[nH]2)cc1OCC` (stereo not drawn) [Compound 45, 3-(1H-benzimidazol-2-carbonyl)-3,4-diethoxyphenyl-5-(1H-indol-3-yl)spiro[inden-2,2′-pyrrolidine]-1,3-dione] are greater than 100 µM, 56.4 µM and greater than 100 µM.
`O=C(c1nc2ccccc2[nH]1)C1C(c2cccc(Br)c2)C(c2c[nH]c3ccccc23)NC12C(=O)c1ccccc1C2=O` (stereo not drawn) [Compound 46, 3-(1H-benzimidazol-2-carbonyl)-4-(3-bromophenyl)-5-(1H-indol-3-yl)spiro[inden-2,2′-pyrrolidine]-1,3-dione]: the figures for the IC50 in assay [1] (Homo sapiens), in assay [2] (setting [4]) and in assay [3] (Homo sapiens) were 12.2 µM, 18.4 µM and 21.4 µM, respectively.
On the same counts, the results for `CCOc1ccc(C2C(c3c[nH]c4ccccc34)NC3(C(=O)c4ccccc4C3=O)C2C(=O)c2nc3ccccc3[nH]2)cc1` (stereo not drawn) [Compound 47] are 34.6 µM, 39.8 µM and 38 µM.
On the same counts, the results for `O=C(c1nc2ccccc2[nH]1)C1C(c2ccc(Br)cc2)C(c2c[nH]c3ccccc23)NC12C(=O)c1ccccc1C2=O` (stereo not drawn) [Compound 48] are 40.2 µM, 37.8 µM and 44.2 µM.
Turning to `COc1ccc(C2=N[C@@H](c3ccc(Cl)cc3)[C@@H](c3ccc(Cl)cc3)N2C(=O)N2CCNC(=O)C2)c(OC(C)C)c1` [Nutlin-3a, reference compound], the IC50 in assay [1] was found to be 11 µM; in assay [2] (MTT method), 21.7 µM; in assay [3], 21.4 µM.

The values are drawn from patent US12637472B2, “Benzimidazole heteroatom-containing spiro compound and medicinal use thereof” (Changzhi University, priority 2023, dated 2026).
